From patent publication US20190263796A1, “LIM KINASE INHIBITORS, PHARMACEUTICAL COMPOSITION AND METHOD OF USE IN LIMK-MEDIATED DISEASES” (CELLIPSE, priority 2016, published 2019) come the findings set out here.

The test system of experiment [1] is Phospho-Ser3-Cofilin/Total Cofilin. Put plainly: Western blot of cellular cofilin phosphorylation status, MV4-11 (II.4). Type of experiment: cell-based. Particulars: Homo sapiens; MV4-11 cells; 2 h treatment. The procedure: MV4-11 cell line was originally purchased from the American Type Culture Collection (ATCC). MV4-11 cells are cultured in RPMI 1640 10% (v/v) FBS supplemented with 100 U/mL^−1 penicillin, 0.1 mg·mL^−1 streptomycin (PAN Biotech P06-07100) and 2 mM Glutamine (Sigma-Aldrich 59202C). Cells were maintained at 37° C. with 5% CO2.
In a 6 wells plate (Falcon 353046), 2·10^6 cells in 1.5 mL medium are treated for 2 h with compounds. Cells are then collected and cell lysis is performed at 4° C. using RIPA buffer supplemented with protease inhibitors cocktail (Sigma-Aldrich P8340) and phosphatase inhibitors cocktail (Sigma-Aldrich P5726). Following centrifugation 30 min 15000 g 4° C., supernatants are mixed with Laemmli buffer and denaturation is performed by heating 5 min 95° C. 10 μL of samples are subjected to electrophoresis on 15% SDS-PAGE. After electro-transfer (Mini Transblot, Bio-Rad), the PVDF membrane (Merck-Millipore Immobilon P IPVH00010) is blocked with Tris Buffered Saline, pH 7.4 (TBS) with 0.1% Tween 20 and 5% BSA for 1 h RT under agitation. The membrane was rinsed 3 times 10 min RT under agitation with TBS, 0.1% Tween-20 (TBST) and then 1 h RT with anti-phospho-Ser3-cofilin (Cell Signaling Technology #3313, 1/1000 dilution) antibody or anti-cofilin (Cell Signaling Technology #3312, 1/1000 dilution) diluted in TBS, 0.1% Tween 20 and 1% BSA. The membrane is then rinsed 3 times 10 min RT under agitation in TBST and incubated for 1 hour with anti-rabbit secondary antibody, horseradish peroxidase conjugated (Jackson Immunoresearch #711-036-152) under agitation at room temperature. After three washes 10 min RT in TBST, the detection of total or phosphorylated cofilin was performed using chemiluminescence kit ECL™ Plus (GE Healthcare RPN2132). For each concentration of compound, ratio between phosphorylated cofilin and total cofilin is determined. This ratio is then expressed as percentage of control ratio (i.e ratio from DMSO treated cells). IC50 is then determined.

A further experiment addresses T1, MEK1(h) (Homo sapiens, UniProt Q02750).
T1 construct: purchased Merck-Millipore (KinaseProfiler panel service)
The experiment is described as follows: KinaseProfiler panel: MEK1(h). Type of experiment: biochemical. Particulars: residual activity, 5 μM inhibitor, Km ATP. The method, then: (§1) Kinase selectivity was performed on a panel of 58 recombinant protein kinases. The assays were performed in the presence of 5 μM inhibitor at the respective Km ATP for each kinase, using the KinaseProfiler panel service (Merck-Millipore). Residual activity measured in the presence of […] inhibitor is expressed as the percent of activity determined in the absence of inhibitor.

The target in the next experiment is T2, KDR(h) (Homo sapiens, UniProt P35968).
T2 construct: purchased Merck-Millipore (KinaseProfiler panel service)
The experiment is described as follows: KinaseProfiler panel: KDR(h). Type of experiment: biochemical. Particulars: residual activity, 5 μM inhibitor, Km ATP. The procedure: as §1

The next experiment deals with T3, PAK4(h) (Homo sapiens, UniProt O96013).
T3 construct: purchased Merck-Millipore (KinaseProfiler panel service)
T3 sequence (O96013 whole entry): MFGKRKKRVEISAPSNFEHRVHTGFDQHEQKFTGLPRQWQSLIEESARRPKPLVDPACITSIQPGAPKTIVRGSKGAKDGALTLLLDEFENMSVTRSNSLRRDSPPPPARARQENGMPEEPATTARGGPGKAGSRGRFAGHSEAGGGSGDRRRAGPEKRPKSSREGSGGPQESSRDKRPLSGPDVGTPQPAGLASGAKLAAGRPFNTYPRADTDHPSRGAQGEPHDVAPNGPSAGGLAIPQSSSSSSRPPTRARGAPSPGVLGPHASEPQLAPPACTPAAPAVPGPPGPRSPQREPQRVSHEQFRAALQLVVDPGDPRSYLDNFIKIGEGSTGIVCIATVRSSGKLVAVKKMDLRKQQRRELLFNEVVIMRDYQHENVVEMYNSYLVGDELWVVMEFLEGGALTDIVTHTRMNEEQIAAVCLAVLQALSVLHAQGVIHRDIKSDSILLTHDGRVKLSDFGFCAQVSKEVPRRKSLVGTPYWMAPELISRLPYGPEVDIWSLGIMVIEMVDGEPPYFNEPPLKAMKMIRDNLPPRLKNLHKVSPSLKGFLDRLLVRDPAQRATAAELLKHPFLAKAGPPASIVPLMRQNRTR
The experiment is described as follows: KinaseProfiler panel: PAK4(h). It counts as biochemical. Particulars: residual activity, 5 μM inhibitor, Km ATP. The method, then: as §1

In the next experiment the target is T4, Flt3(h) (Homo sapiens, UniProt P36888).
T4 construct: purchased Merck-Millipore (KinaseProfiler panel service)
T4 sequence (P36888 27-993): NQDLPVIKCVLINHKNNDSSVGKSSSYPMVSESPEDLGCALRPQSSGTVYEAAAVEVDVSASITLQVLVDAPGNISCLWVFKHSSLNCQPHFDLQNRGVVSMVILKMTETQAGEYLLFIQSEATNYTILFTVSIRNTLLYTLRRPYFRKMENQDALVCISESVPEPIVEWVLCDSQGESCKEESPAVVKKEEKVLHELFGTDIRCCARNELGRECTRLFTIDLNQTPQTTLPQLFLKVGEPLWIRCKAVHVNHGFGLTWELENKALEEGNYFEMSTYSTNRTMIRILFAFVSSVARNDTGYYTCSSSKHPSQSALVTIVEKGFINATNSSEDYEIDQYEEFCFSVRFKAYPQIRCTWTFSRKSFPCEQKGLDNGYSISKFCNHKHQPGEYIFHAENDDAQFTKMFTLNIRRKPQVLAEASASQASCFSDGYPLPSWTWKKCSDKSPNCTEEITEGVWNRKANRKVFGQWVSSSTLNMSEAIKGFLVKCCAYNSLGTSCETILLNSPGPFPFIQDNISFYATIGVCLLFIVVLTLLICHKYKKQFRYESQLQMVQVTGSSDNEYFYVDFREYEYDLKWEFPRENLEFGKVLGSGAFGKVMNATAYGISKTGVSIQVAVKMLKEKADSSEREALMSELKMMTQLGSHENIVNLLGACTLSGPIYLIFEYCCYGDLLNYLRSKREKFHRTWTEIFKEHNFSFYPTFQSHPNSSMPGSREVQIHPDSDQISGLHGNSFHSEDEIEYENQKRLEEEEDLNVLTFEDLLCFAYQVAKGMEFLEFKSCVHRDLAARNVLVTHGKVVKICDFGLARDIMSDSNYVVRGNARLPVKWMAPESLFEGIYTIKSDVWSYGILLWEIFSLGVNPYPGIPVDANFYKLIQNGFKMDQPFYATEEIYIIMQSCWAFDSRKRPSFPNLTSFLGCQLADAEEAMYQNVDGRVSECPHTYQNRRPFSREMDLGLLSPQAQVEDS
The experiment is described as follows: KinaseProfiler panel: Flt3(h). It counts as biochemical. Particulars: residual activity, 5 μM inhibitor, Km ATP. The method, then:
as §1

For a further experiment, the target named is T5, PAK3(h) (Homo sapiens, UniProt O75914).
T5 construct: purchased Merck-Millipore (KinaseProfiler panel service)
T5 sequence (O75914 whole entry): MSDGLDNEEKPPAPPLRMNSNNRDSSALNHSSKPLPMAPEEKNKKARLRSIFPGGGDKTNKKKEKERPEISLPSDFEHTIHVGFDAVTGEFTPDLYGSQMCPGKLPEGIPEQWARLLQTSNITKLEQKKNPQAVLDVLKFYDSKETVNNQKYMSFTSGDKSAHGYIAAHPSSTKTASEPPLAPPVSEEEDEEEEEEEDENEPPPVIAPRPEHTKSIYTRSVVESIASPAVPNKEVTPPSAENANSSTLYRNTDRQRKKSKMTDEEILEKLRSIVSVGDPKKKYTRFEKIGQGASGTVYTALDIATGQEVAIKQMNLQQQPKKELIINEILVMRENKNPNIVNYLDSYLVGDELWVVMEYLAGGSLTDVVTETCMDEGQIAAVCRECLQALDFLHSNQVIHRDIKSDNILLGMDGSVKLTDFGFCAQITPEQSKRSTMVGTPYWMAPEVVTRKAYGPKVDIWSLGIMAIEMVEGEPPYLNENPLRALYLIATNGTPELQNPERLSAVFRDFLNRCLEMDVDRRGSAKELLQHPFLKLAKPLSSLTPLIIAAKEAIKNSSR
Put plainly: KinaseProfiler panel: PAK3(h). It counts as biochemical. Particulars: residual activity, 5 μM inhibitor, Km ATP. The procedure:
as §1

The target in a further experiment is T6, cKit(h) (Homo sapiens, UniProt P10721).
T6 construct: purchased Merck-Millipore (KinaseProfiler panel service)
The experiment is described as follows: KinaseProfiler panel: cKit(h). Particulars: residual activity, 5 μM inhibitor, Km ATP. Type of experiment: biochemical. The method, then: as §1

A further experiment concerns the target T7, Abl(h) (Homo sapiens, UniProt P00519).
T7 construct: purchased Merck-Millipore (KinaseProfiler panel service)
The experiment is described as follows: KinaseProfiler panel: Abl(h). Particulars: residual activity, 5 μM inhibitor, Km ATP. It counts as biochemical. The procedure:
as §1

In another experiment the target is T8, Plk1(h) (Homo sapiens, UniProt P53350).
T8 construct: purchased Merck-Millipore (KinaseProfiler panel service)
Put plainly: KinaseProfiler panel: Plk1(h). Type of experiment: biochemical. Particulars: residual activity, 5 μM inhibitor, Km ATP. The procedure: as §1

The next experiment concerns the target T9, TrkA(h) (Homo sapiens, UniProt P04629).
T9 construct: purchased Merck-Millipore (KinaseProfiler panel service)
Put plainly: KinaseProfiler panel: TrkA(h). Type of experiment: biochemical. Particulars: residual activity, 5 μM inhibitor, Km ATP. The procedure: as §1

The target in a further experiment is T10, Src(1-530)(h) (Homo sapiens, UniProt P12931).
T10 construct: Src(1-530)(h); purchased Merck-Millipore (KinaseProfiler panel service)
T10 sequence (P12931 1-530): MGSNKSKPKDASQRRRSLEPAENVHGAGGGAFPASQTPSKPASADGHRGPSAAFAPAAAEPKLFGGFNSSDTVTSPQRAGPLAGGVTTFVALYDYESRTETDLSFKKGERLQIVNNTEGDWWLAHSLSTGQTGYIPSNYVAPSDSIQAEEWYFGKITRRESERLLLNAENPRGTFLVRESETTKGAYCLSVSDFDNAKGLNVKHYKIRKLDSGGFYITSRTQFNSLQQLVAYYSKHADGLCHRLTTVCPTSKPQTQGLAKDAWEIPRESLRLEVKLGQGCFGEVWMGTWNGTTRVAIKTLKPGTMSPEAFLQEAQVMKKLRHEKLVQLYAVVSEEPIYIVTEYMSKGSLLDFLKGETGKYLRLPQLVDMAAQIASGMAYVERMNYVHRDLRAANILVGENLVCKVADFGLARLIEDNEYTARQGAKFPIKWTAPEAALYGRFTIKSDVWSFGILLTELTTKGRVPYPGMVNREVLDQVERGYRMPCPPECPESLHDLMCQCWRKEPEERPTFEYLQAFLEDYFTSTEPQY
Put plainly: KinaseProfiler panel: Src(1-530)(h). It counts as biochemical. Particulars: residual activity, 5 μM inhibitor, Km ATP. The method, then:
as §1

The target of another experiment is T11, CaMKIIδ(h) (Homo sapiens, UniProt Q13557).
T11 construct: purchased Merck-Millipore (KinaseProfiler panel service)
T11 sequence (Q13557 whole entry): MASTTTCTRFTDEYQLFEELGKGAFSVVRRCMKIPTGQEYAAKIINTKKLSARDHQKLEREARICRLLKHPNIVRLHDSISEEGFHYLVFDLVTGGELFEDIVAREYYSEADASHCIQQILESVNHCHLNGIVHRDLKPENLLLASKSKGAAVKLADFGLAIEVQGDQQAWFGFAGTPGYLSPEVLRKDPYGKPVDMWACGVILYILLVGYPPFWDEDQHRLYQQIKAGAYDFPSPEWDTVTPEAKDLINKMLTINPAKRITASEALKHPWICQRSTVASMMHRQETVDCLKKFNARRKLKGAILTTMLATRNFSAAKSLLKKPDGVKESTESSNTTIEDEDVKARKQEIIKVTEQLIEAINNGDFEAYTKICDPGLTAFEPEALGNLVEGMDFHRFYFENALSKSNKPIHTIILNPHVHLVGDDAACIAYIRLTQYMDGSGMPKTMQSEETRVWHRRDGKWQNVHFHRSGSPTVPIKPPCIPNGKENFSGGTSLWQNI
Put plainly: KinaseProfiler panel: CaMKIIδ(h). Type of experiment: biochemical. Particulars: residual activity, 5 μM inhibitor, Km ATP. The procedure: as §1

The target in the next experiment is T12, PDGFRα(h) (Homo sapiens, UniProt P16234).
T12 construct: purchased Merck-Millipore (KinaseProfiler panel service)
Put plainly: KinaseProfiler panel: PDGFRα(h). It counts as biochemical. Particulars: residual activity, 5 μM inhibitor, Km ATP. The procedure:
as §1

Another experiment concerns the target T13, AMPKα1(h) (Homo sapiens, UniProt Q13131).
T13 construct: purchased Merck-Millipore (KinaseProfiler panel service)
Put plainly: KinaseProfiler panel: AMPKα1(h). Particulars: residual activity, 5 μM inhibitor, Km ATP. Type of experiment: biochemical. The procedure:
as §1

Another experiment concerns the target T14, CaMKIβ(h) (Homo sapiens, UniProt Q6P2M8).
T14 construct: purchased Merck-Millipore (KinaseProfiler panel service)
The experiment is described as follows: KinaseProfiler panel: CaMKIβ(h). Particulars: residual activity, 5 μM inhibitor, Km ATP. It counts as biochemical. The procedure:
as §1

T7 sequence (P00519 whole entry): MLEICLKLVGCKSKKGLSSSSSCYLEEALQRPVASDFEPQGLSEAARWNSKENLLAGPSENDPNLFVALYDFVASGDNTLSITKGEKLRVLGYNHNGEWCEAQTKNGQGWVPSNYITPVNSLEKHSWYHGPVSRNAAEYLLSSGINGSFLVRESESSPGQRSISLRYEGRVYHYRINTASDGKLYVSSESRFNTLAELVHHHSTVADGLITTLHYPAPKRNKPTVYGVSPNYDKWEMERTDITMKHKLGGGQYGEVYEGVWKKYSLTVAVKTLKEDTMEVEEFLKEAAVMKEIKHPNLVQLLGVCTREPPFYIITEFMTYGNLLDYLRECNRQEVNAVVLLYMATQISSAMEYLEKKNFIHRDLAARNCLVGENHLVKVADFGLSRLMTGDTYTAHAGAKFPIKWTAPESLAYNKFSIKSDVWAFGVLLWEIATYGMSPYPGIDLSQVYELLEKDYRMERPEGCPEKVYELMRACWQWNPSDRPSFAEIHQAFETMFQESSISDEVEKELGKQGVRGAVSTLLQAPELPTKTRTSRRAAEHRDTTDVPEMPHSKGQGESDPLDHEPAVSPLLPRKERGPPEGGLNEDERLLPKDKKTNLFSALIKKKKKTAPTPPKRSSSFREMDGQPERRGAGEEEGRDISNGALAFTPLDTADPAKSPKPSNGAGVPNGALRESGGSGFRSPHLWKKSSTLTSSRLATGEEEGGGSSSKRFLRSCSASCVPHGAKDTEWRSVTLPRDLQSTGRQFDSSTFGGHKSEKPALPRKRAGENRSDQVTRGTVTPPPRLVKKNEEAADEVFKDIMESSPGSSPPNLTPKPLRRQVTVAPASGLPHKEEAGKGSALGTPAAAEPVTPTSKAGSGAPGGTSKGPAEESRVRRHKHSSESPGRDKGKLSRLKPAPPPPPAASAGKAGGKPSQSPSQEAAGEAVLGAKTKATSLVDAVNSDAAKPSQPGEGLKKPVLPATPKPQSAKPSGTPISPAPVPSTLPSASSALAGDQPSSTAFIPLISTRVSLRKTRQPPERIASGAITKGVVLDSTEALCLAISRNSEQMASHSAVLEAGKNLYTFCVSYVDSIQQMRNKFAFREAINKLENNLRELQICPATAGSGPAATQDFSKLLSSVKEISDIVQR
T14 sequence (Q6P2M8 whole entry): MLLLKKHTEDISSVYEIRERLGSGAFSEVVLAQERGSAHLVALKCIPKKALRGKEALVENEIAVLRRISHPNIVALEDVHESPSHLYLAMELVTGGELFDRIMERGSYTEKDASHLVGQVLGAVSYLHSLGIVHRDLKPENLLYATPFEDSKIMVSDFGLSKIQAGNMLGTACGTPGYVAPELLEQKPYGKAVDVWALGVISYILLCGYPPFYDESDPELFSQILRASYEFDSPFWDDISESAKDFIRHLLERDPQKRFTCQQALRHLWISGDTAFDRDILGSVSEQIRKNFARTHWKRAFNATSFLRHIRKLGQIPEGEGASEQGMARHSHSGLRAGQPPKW
T1 sequence (Q02750 whole entry): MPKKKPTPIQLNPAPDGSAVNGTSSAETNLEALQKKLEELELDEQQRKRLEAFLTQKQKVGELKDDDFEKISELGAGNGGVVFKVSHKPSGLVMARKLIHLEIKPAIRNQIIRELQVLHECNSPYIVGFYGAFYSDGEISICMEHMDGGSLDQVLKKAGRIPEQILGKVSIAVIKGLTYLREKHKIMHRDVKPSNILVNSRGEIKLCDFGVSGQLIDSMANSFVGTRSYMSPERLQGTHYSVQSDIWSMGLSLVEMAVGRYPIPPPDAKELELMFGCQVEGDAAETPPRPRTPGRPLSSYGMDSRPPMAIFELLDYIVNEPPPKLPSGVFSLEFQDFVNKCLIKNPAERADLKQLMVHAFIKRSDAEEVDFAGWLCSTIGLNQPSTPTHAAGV

With `CC(C)(C)c1nc(-c2cccc(NS(=O)(=O)c3c(F)cccc3F)c2F)c(-c2ccnc(Nc3ccccc3)n2)s1` [Compound 1, N-(3-(2-(tert-butyl)-5-(2-(phenylamino)pyrimidin-4-yl)thiazol-4-yl)-2-fluorophenyl)-2,6-difluorobenzenesulfonamide], in [1], the IC50 was below 200 nM. For the same molecule, the activity at 5 µM on MEK1(h) is at least 50%; at KDR(h), 10 to 50%; at PAK4(h) it was at least 50%; at Flt3(h), at least 50%; at PAK3(h), at least 50%; on cKit(h) it was at least 50%. Besides, the activity at 5 µM on Abl(h) was at least 50%; at Plk1(h), at least 50%; at TrkA(h), 10 to 50%; on Src(1-530)(h), 3 to 10%; at CaMKIIδ(h), at least 50%; on PDGFRα(h) it was at least 50%. The activity at 5 µM at AMPKα1(h) and at CaMKIβ(h) was at least 50% each time.
